Results: US7653490B2, “Nuclear magnetic resonance assembly of chemical entities” (Triad Liquidating Company LLC, priority 2001, dated 2010)
pIC50, pKd: −log10 of the molar value.

Assays:
[1] = target: activated p38α protein kinase (Homo sapiens, UniProt Q16539); assay: 1D saturation transfer difference with selective saturation of antenna methyl of TTM2002.143.A27; type: binding; conditions: 2 s saturation at 3.0 ppm, 4° C.
Excerpt: The 25 compounds from the MOTIF library described in Example IV were screened for proximal binding near the ligand-probe as follows. Samples were obtained containing 100 to 1000 micromolar concentrations of the TTM2002.143.A27 ligand-probe, 10 to 50 micromolar concentrations of activated p38α protein kinase, and one of the 25 compounds at a concentration of 100 to 1000 micromolar. Samples were screened for the presence of second ligands binding proximal to the common ligand-probe by (^1H) 1 dimensional saturation transfer difference experiments using saturations times of 2 s (frequency selective excitation via a train of 232 6 ms τ pulses with a GAUSS profile at an 80 Hz RF field strength) with solvent suspension using WATERGATE at 4° C.

p38α [2] = target: T1, p38α (Homo sapiens, UniProt Q16539); assay: WaterLOGSY competition experiments (displacement of PBBA); type: binding
Excerpt: A peptide having the sequence […] (SEQ ID NO:1) is a known phosphorylation substrate for p38α as described, for example, in Chen et al. Biochemistry 39:2079-2087 (2000). […] This site is shown in the lower panel of FIG. 7, and is referred to as the SL (specificity ligand) site, since extending a bi-ligand library into this site off of an ATP mimic might provide additional specificity.

p38α MAP kinase = p38α MAP kinase (Homo sapiens, UniProt Q16539); assay: Phosphorylation of myelin basic protein (MBP) by p38α; type: biochemical
Method: The TTM2001.101.A09 bi-ligand compound and the fragments from which it was constructed were tested as inhibitors of p38α enzymatic activity in an assay measuring phosphorylation of myelin basic protein (MBP) by p38α.

[3] = target: unactivated p38α MAP kinase (Homo sapiens, UniProt Q16539); assay: WaterLOGSY NMR binding screen; conditions: 10 to 30 micromolar p38α, 0.1 to 1.0 millimolar compound, 4° C.
Excerpt: A library of 29 PBBA structure analogs was screened against unlabeled p38α MAP kinase (p38α) as follows. Samples containing 10 to 30 micromolar concentration of unactivated p38α MAP kinase and 0.1 to 1.0 millimolar concentration of one of the PBBA structure analogs were obtained. The samples were screened using WaterLOGSY with saturations times of 2 s (frequency selective excitation via a train of 232 6 ms π pulses with a GAUSS profile at an 80 Hz RF field strength) with solvent suspension using WATERGATE at 4° C. WaterLOGSY is further described in Dalvit et al. J. Biomol. NMR 21:349-59 (2001) Dalvit et al. J. Magn. Res. B112:282-288 (1996) and Dalvit et al., J. Biomol. NMR 11:437-444 (1998).
A number of PBBA related compounds were screened with WaterLOGSY to identify those that bound to p38α. Of the compounds shown in FIG. 6, two were identified by cross-saturation experiments (with 10 μM unactivated p38α, 1.5 s to 3.0 s saturation with a train of IBURP pulses) to interact with TTM2001.082.A10 as indicated by the arrows.

p38α [4] = target: T1, p38α; assay: Fluorescence polarization displacement of fluorescently tagged staurosporine; type: binding
p38α [5] = target: T1, p38α; assay: 1D 1H NMR line broadening; type: binding; conditions: 50 micromolar compound, 10 μM p38α
Method: The ability of TTM2001.101.A09 to bind to p38α was determined by comparing the degree of line broadening in 1D ^1H NMR spectra for the compound in the presence of p38α compared to in the absence of p38α.

Chain of p38α MAP kinase (Q16539 whole entry, the tested form may be a part): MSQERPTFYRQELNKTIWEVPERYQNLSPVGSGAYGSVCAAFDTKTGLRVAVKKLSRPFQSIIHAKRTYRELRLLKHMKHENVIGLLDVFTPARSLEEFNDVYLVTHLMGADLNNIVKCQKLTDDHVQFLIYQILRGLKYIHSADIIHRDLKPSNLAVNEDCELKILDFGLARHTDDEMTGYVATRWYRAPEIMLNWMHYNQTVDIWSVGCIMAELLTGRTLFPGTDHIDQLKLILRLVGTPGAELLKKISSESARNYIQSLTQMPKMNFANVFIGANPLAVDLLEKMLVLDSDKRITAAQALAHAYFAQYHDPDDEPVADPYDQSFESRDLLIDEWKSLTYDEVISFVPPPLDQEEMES
T1 sequence (Q16539 whole entry): as the sequence (Q16539 whole entry, the tested form may be a part) above
Chain of unactivated p38α MAP kinase (Q16539 whole entry): as the sequence (Q16539 whole entry, the tested form may be a part) above
Chain of activated p38α protein kinase (Q16539 whole entry): as the sequence (Q16539 whole entry, the tested form may be a part) above

## CCCCCc1ccc(N)cc1 [PPA, p-pentyl-aniline]
[1]
  intensity change of aromatic protons on selective saturation of antenna methyl protons: showed a reduction in the intensity on selective saturation of the methyl protons

## SEQ ID NO:1: peptide IPTTPITTTYFFFKKK, known phosphorylation substrate for p38α
p38α [2]
  ability to displace PBBA from p38α, WaterLOGSY competition: could not displace PBBA from p38α

## CCCCc1ccc(C(=O)O)cc1 [PBBA, p-butyl benzoic acid]
p38α MAP kinase
  inhibition of phosphorylation of MBP protein by p38α (in words): inhibit phosphorylation of MBP protein by p38α
[3]
  binding to p38α by WaterLOGSY cross-saturation: showed cross-saturation effects with p38α indicating binding to the protein
p38α [4]
  ability to displace fluorescently tagged staurosporine: not able to displace a fluorescently tagged staurosporine

## O=C(O)c1ccc(CCCCCCSCc2cc(-n3cnc4cc(C(=O)O)ccc43)ccc2F)cc1 [TTM2001.101.A09]
p38α MAP kinase; IC50 corrected for high ATP concentration, read-out: Kd for binding between p38α and compound
  pKd: ~6.52
p38α MAP kinase; read-out: IC50, inhibition of myelin basic protein phosphorylation by p38α
  pIC50: 5.77
p38α MAP kinase; versus starting fragments PBBA and TTM2001.082.B09
  fold tighter than either of the starting fragments: greater than 100 fold
p38α [5]
  line broadening in 1D 1H NMR spectrum in presence of p38α: significant line-broadening
